Laboratory results: patent US7183252B2, “Indole peptidomimetics as thrombin receptor antagonists” (Ortho-McNeil Pharmaceutical, Inc., priority 1999, dated 2007)
Where two headings read alike, the source gives them in different places.

Experiments:
gel-filtered platelets = assay: In vitro inhibition of thrombin-induced gel-filtered platelet aggregation; format: cell-based; details: human gel-filtered platelets, agonist thrombin 50 μL of 1 unit/mL, read-out: Thrmb IC50 (Thrombin-induced aggregation of gel-filtered platelets)
In short: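 Gel-filtered (Sepharose 2B) human platelets from citrated PRP, 2×10^7 per sample, in Tyrode's buffer pH 7.4 with BSA and added calcium, preincubated with test compound. Aggregation induced by thrombin (50 μL of 1 unit/mL) and followed as light transmission over 3 min. Inhibition is taken relative to control-treated platelets.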

[1] = target: T1, thrombin receptor (PAR-1) (Homo sapiens, UniProt P25116); assay: In vitro thrombin receptor binding assay (CHRF membranes); details: tritiated 721-40 radioligand, read-out: Bndg IC50 (Thrombin receptor binding)
T1 construct: CHRF membranes (Jones, Biochim. Biophys. Acta 1992, 1136, 272) are thawed from −70° C; endogenous in cells; host or cells: CHRF cell membranes
T1 sequence (P25116 22-425): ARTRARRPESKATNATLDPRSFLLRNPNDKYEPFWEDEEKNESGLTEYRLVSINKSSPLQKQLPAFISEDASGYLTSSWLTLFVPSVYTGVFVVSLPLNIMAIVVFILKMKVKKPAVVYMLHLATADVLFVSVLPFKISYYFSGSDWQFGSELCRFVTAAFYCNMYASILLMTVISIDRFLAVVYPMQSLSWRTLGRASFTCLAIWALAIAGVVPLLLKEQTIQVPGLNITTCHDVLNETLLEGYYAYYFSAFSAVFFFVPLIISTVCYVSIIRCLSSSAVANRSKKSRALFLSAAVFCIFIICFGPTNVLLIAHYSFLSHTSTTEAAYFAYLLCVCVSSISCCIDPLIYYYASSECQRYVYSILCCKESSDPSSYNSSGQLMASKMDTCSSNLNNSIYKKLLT
In short: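 CHRF cell membranes incubated 30 min with tritiated peptide agonist 721–40 and compound at 3.7 μg/mL final (0.6% DMSO) in HEPES/MgCl2/BSA buffer. Nonspecific binding defined with unlabeled 721–40; bound radioactivity counted after filtration onto PEI-treated filters.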

Structure (SMILES) | IC50 (gel-filtered platelets) | IC50 [1] | IC50 (gel-filtered platelets; Platelet)
NCCNC(=O)[C@@H](Cc1ccncc1)NC(=O)[C@@H](Cc1ccc(F)c(F)c1)NC(=O)c1ccc2c(CN3CCCC3)cn(Cc3c(Cl)cccc3Cl)c2c1 [Compound 176] | 45.7 µM | 43.2 µM | 
NCCNC(=O)[C@H](Cc1cccs1)NC(=O)[C@H](Cc1ccc(Cl)cc1)NC(=O)c1ccc2c(CN3CCCC3)cn(Cc3c(Cl)cccc3Cl)c2c1 [Compound 177] |  | 0.62 µM | 4.4 µM
NCCNC(=O)[C@@H](Cc1cccs1)NC(=O)[C@@H](Cc1ccc(Cl)cc1)NC(=O)c1ccc2c(CN3CCCC3)cn(Cc3c(Cl)cccc3Cl)c2c1 [Compound 178] |  | 9.9 µM | 40.7 µM
